# Measurements from the OPERA property sets (Mansouri et al. 2018).
row,SMILES,logP
1,COc1ccccc1N1CCN(CCCC(=O)c2ccc(F)cc2)CC1,3.6
2,COc1ccccc1N1CCN(CCNC(=O)c2ccc[nH]2)CC1,1.6
3,COc1ccccc1N1CCN(CCCCc2ccc(F)cc2)CC1,4.8
4,COc1ccccc1N1CCN(CCCOc2ccc(F)cc2)CC1,4.1
5,COc1ccccc1N1CCN(CCNC(=O)c2ccncn2)CC1,1.5
6,COc1ccccc1N1CCN(CCNC(=N)C2CCCCC2)CC1,3.4
7,COc1ccccc1N1CCN(CCNC(=O)c2ccccc2)CC1,2.2
8,COc1ccccc1N1CCN(CCNC(=O)c2cccs2)CC1,2
9,COc1ccccc1N1CCN(CCC=Cc2ccc(F)cc2)CC1,4.7
10,COc1ccccc1N1CCN(CCNC(=S)C2CCCCC2)CC1,3.7
11,COc1ccccc1N1CCN(CCOCc2ccc(F)cc2)CC1,3.6
12,COc1ccccc1N1CCN(CCNC(=O)C2CCCCC2)CC1,2.8
13,COc1ccccc1N1CCN(CCNC(C)=O)CC1,0.5
14,COc1ccccc1N1CCN(CCCC(O)c2ccc(F)cc2)CC1 (configuration not stated),3.4
15,COc1ccccc1N1CCN(CCNC(=O)c2ccco2)CC1,1.6
16,COc1ccccc1N1CCN(CCNC(=O)c2cccnc2)CC1,1.2
17,COc1ccccc1N1CCN(CCNC(=O)c2ccc(F)cc2)CC1,2.5
